Test results from the supplement of paper PMC10307832.

What was measured:
Assay in all cases: relative viability (nuclei count vs DMSO), 5 days (fraction); higher = more cells survive
[1] = compound: CCN1C(=O)C2=CC(=C(N=C2N(C1=O)C3CC3)N)C(=O)N + Cc1nc(Nc2ncc(C(=O)Nc3c(C)cccc3Cl)s2)cc(N2CCN(CCO)CC2)n1 [Dasatinib] (partner 0.075 µM)
Summary of the method: (§1)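 One day after seeding in 1536-well plates, lung cancer cell lines were dosed by pin tool. Dosing was either single-drug or a fixed anchor-drug dose plus five library-drug doses (not always all listed) in √10 steps. After 5 days, nuclei were stained in one fix-and-stain step and counted on 4× images, and relative viability is the nuclei count of treated wells over that of vehicle wells, given as the median of duplicate plates.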

[2] = compound: CCN1C(=O)C2=CC(=C(N=C2N(C1=O)C3CC3)N)C(=O)N + NC(=O)Nc1cc(-c2cccc(F)c2)sc1C(=O)N[C@H]1CCCNC1 [AZD7762] (partner 0.2 µM)
Summary of the method: as §1

[3] = compound: CCN1C(=O)C2=CC(=C(N=C2N(C1=O)C3CC3)N)C(=O)N + Cc1cc(Nc2cc(N3CCN(C)CC3)nc(Sc3ccc(NC(=O)C4CC4)cc3)n2)n[nH]1 [Tozasertib] (partner 0.1 µM)
Summary of the method: as §1

[4] = compound: CCN1C(=O)C2=CC(=C(N=C2N(C1=O)C3CC3)N)C(=O)N + N=C(N)NC(=N)NCCc1ccccc1 [Phenformin] (partner 250 µM)
Summary of the method: as §1

[5] = compound: CCN1C(=O)C2=CC(=C(N=C2N(C1=O)C3CC3)N)C(=O)N + Nc1nc2[nH]cc(CCc3ccc(C(=O)N[C@@H](CCC(=O)O)C(=O)O)cc3)c2c(=O)[nH]1 [Pemetrexed] (partner 0.2 µM)
Summary of the method: as §1

[6] = compound: CCN1C(=O)C2=CC(=C(N=C2N(C1=O)C3CC3)N)C(=O)N + COc1cccc2cc(-c3nc([C@H]4CC[C@H](C(=O)O)CC4)n4ncnc(N)c34)[nH]c12 [OSI-027] (partner 0.5 µM)
Summary of the method: as §1

[7] = compound: CCN1C(=O)C2=CC(=C(N=C2N(C1=O)C3CC3)N)C(=O)N + CC(=O)c1c(C)c2cnc(Nc3ccc(N4CCNCC4)cn3)nc2n(C2CCCC2)c1=O [Palbociclib] (partner 0.5 µM)
Summary of the method: as §1

[8] = compound: CCN1C(=O)C2=CC(=C(N=C2N(C1=O)C3CC3)N)C(=O)N + CC(=O)Nc1cccc(-n2c(=O)n(C3CC3)c(=O)c3c(Nc4ccc(I)cc4F)n(C)c(=O)c(C)c32)c1 [Trametinib] (partner 0.02 µM)
Summary of the method: as §1

[9] = compound: CCN1C(=O)C2=CC(=C(N=C2N(C1=O)C3CC3)N)C(=O)N + CCNC(=O)c1noc(-c2cc(C(C)C)c(O)cc2O)c1-c1ccc(CN2CCOCC2)cc1 [Luminespib] (partner 0.01 µM)
Summary of the method: as §1

[10] = compound: CCN1C(=O)C2=CC(=C(N=C2N(C1=O)C3CC3)N)C(=O)N + O=C(c1cc(Cc2n[nH]c(=O)c3ccccc23)ccc1F)N1CCN(C(=O)C2CC2)CC1 [Olaparib] (partner 8 µM)
Summary of the method: as §1

[11] = compound: CCN1C(=O)C2=CC(=C(N=C2N(C1=O)C3CC3)N)C(=O)N + Nc1ncn([C@H]2C[C@H](O)[C@@H](CO)O2)c(=O)n1 [Decitabine] (partner 2 µM)
Summary of the method: as §1

[12] = compound: CCN1C(=O)C2=CC(=C(N=C2N(C1=O)C3CC3)N)C(=O)N + O=C(CCCCCCC(=O)Nc1ccccc1)NO [Vorinostat] (partner 1 µM)
Summary of the method: as §1

[13] = compound: CCN1C(=O)C2=CC(=C(N=C2N(C1=O)C3CC3)N)C(=O)N
Summary of the method: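 Vehicle-anchored 1536-well plates of lung cancer cell lines, held overnight at 37 °C, were pinned with five library-drug doses (not always all listed) spaced by √10. No medium change followed over the next 5 days, after which the cells were fixed, permeabilised and Hoechst-stained together and imaged at 4×. Nuclei were counted with MetaXpress, and viability is treated-well nuclei over vehicle-well nuclei, taken as a median across plates. Plates passed with control CV below 25% and at least one doubling.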

[14] = compound: CCN1C(=O)C2=CC(=C(N=C2N(C1=O)C3CC3)N)C(=O)N + C[C@@H](Oc1cc(-c2cnn(C3CCNCC3)c2)cnc1N)c1c(Cl)ccc(F)c1Cl [Crizotinib] (partner 1 µM)
Summary of the method: as §1

[15] = compound: CCN1C(=O)C2=CC(=C(N=C2N(C1=O)C3CC3)N)C(=O)N + CS(=O)(=O)N1CCN(Cc2cc3nc(-c4cccc5[nH]ncc45)nc(N4CCOCC4)c3s2)CC1 [Pictilisib] (partner 1 µM)
Summary of the method: as §1

[16] = compound: CCN1C(=O)C2=CC(=C(N=C2N(C1=O)C3CC3)N)C(=O)N + CS(=O)(=O)CCNCc1ccc(-c2ccc3ncnc(Nc4ccc(OCc5cccc(F)c5)c(Cl)c4)c3c2)o1 [Lapatinib] (partner 2 µM)
Summary of the method: as §1

[17] = compound: CCN1C(=O)C2=CC(=C(N=C2N(C1=O)C3CC3)N)C(=O)N + CC(C)C[C@H](NC(=O)[C@H](Cc1ccccc1)NC(=O)c1cnccn1)B(O)O [Bortezomib] (partner 0.002 µM)
Summary of the method: as §1

[18] = compound: CCN1C(=O)C2=CC(=C(N=C2N(C1=O)C3CC3)N)C(=O)N + CC1(C)CCC(c2ccc(Cl)cc2)=C(CN2CCN(c3ccc(C(=O)NS(=O)(=O)c4ccc(N[C@H](CCN5CCOCC5)CSc5ccccc5)c(S(=O)(=O)C(F)(F)F)c4)cc3)CC2)C1 [Navitoclax] (partner 0.5 µM)
Summary of the method: as §1

[19] = compound: CCN1C(=O)C2=CC(=C(N=C2N(C1=O)C3CC3)N)C(=O)N + COc1cc2c(Oc3ccc(NC(=O)C4(C(=O)Nc5ccc(F)cc5)CC4)cc3F)ccnc2cc1OCCCN1CCOCC1 [Foretinib] (partner 0.25 µM)
Summary of the method: as §1

[20] = compound: CCN1C(=O)C2=CC(=C(N=C2N(C1=O)C3CC3)N)C(=O)N + Cc1nc(NC(=O)N2CCC[C@H]2C(N)=O)sc1-c1ccnc(C(C)(C)C(F)(F)F)c1 [Alpelisib] (partner 2 µM)
Summary of the method: as §1

[21] = compound: CCN1C(=O)C2=CC(=C(N=C2N(C1=O)C3CC3)N)C(=O)N + C[C@]1(O)C[C@@H](c2nc(-c3ccc4ccc(-c5ccccc5)nc4c3)c3c(N)nccn32)C1 [Linsitinib] (partner 1 µM)
Summary of the method: as §1

Which results are given for NCI-H522?
relative viability ([1]; first compound 0.253 µM): 0.761; relative viability ([1]; first compound 0.8 µM): 0.858; relative viability ([1]; first compound 2.53 µM): 0.992; relative viability ([1]; first compound 8 µM): 0.753; relative viability ([2]; first compound 0.253 µM): 0.726; relative viability ([2]; first compound 0.8 µM): 0.735; relative viability ([2]; first compound 2.53 µM): 0.952; relative viability ([2]; first compound 8 µM): 0.922; relative viability ([3]; first compound 0.253 µM): 0.593; relative viability ([3]; first compound 0.8 µM): 0.478; relative viability ([3]; first compound 2.53 µM): 0.496; relative viability ([3]; first compound 8 µM): 0.489; relative viability ([4]; first compound 0.253 µM): 0.552; relative viability ([4]; first compound 0.8 µM): 0.565; relative viability ([4]; first compound 2.53 µM): 0.705; relative viability ([4]; first compound 8 µM): 0.546; relative viability ([5]; first compound 0.253 µM): 1.1; relative viability ([5]; first compound 0.8 µM): 0.976; relative viability ([5]; first compound 2.53 µM): 0.792; relative viability ([5]; first compound 8 µM): 0.926; relative viability ([6]; first compound 0.253 µM): 0.715; relative viability ([6]; first compound 0.8 µM): 0.623; relative viability ([6]; first compound 2.53 µM): 0.647; relative viability ([6]; first compound 8 µM): 0.722; relative viability ([7]; first compound 0.253 µM): 0.954; relative viability ([7]; first compound 0.8 µM): 0.966; relative viability ([7]; first compound 2.53 µM): 0.794; relative viability ([7]; first compound 8 µM): 1.1; relative viability ([8]; first compound 0.253 µM): 0.712; relative viability ([8]; first compound 0.8 µM): 0.797; relative viability ([8]; first compound 2.53 µM): 0.792; relative viability ([8]; first compound 8 µM): 0.709; relative viability ([9]; first compound 0.253 µM): 1.19; relative viability ([9]; first compound 0.8 µM): 0.977; relative viability ([9]; first compound 2.53 µM): 1.12; relative viability ([9]; first compound 8 µM): 1.05; relative viability ([10]; first compound 0.253 µM): 0.6; relative viability ([10]; first compound 0.8 µM): 0.678; relative viability ([10]; first compound 2.53 µM): 0.555; relative viability ([10]; first compound 8 µM): 0.65; relative viability ([11]; first compound 0.253 µM): 0.56; relative viability ([11]; first compound 0.8 µM): 0.73; relative viability ([11]; first compound 2.53 µM): 0.748; relative viability ([11]; first compound 8 µM): 0.723; relative viability ([12]; first compound 0.253 µM): 0.924; relative viability ([12]; first compound 0.8 µM): 0.81; relative viability ([12]; first compound 2.53 µM): 0.924; relative viability ([12]; first compound 8 µM): 1.01; relative viability ([13]; 0.253 µM): 0.876; relative viability ([13]; 0.8 µM): 0.985; relative viability ([13]; 2.53 µM): 0.983; relative viability ([13]; 8 µM): 0.906

NCI-H1299 was tested. Which relative viability ([14]; first compound 0.253 µM) did it give?
Its relative viability is 1.

What about the relative viability ([14]; first compound 0.8 µM) of the same cell line?
Its relative viability is 0.914.

What about the relative viability ([14]; first compound 2.53 µM) of the same cell line?
Its relative viability is 0.924.

What about the relative viability ([14]; first compound 8 µM) of the same cell line?
Its relative viability is 0.966.

And the relative viability ([15]; first compound 0.253 µM)?
Its relative viability is 0.879.

And the relative viability ([15]; first compound 0.8 µM)?
Its relative viability is 0.81.

What about the relative viability ([15]; first compound 2.53 µM) of the same cell line?
The relative viability was 0.701.

What about the relative viability ([15]; first compound 8 µM) of the same cell line?
The relative viability was 0.962.

And the relative viability ([16]; first compound 0.253 µM)?
Its relative viability is 1.06.

And the relative viability ([16]; first compound 0.8 µM)?
The relative viability was 0.978.

What about the relative viability ([16]; first compound 2.53 µM) of the same cell line?
The relative viability was 0.933.

What about the relative viability ([16]; first compound 8 µM) of the same cell line?
Its relative viability is 0.947.

And the relative viability ([17]; first compound 0.253 µM)?
The relative viability was 1.01.

What about the relative viability ([17]; first compound 0.8 µM) of the same cell line?
Its relative viability is 1.01.

And the relative viability ([17]; first compound 2.53 µM)?
Its relative viability is 1.

And the relative viability ([17]; first compound 8 µM)?
The relative viability was 0.999.

What about the relative viability ([18]; first compound 0.253 µM) of the same cell line?
The relative viability was 1.07.

What about the relative viability ([18]; first compound 0.8 µM) of the same cell line?
Its relative viability is 1.06.

What about the relative viability ([18]; first compound 2.53 µM) of the same cell line?
The relative viability was 1.04.

What about the relative viability ([18]; first compound 8 µM) of the same cell line?
Its relative viability is 1.01.

And the relative viability ([19]; first compound 0.253 µM)?
The relative viability was 1.16.

And the relative viability ([19]; first compound 0.8 µM)?
Its relative viability is 1.1.

And the relative viability ([19]; first compound 2.53 µM)?
The relative viability was 1.08.

What about the relative viability ([19]; first compound 8 µM) of the same cell line?
Its relative viability is 1.05.

And the relative viability ([20]; first compound 0.253 µM)?
The relative viability was 1.01.

What about the relative viability ([20]; first compound 0.8 µM) of the same cell line?
Its relative viability is 1.15.

And the relative viability ([20]; first compound 2.53 µM)?
The relative viability was 1.05.

What about the relative viability ([20]; first compound 8 µM) of the same cell line?
Its relative viability is 1.08.

What about the relative viability ([21]; first compound 0.253 µM) of the same cell line?
Its relative viability is 0.991.

What about the relative viability ([21]; first compound 0.8 µM) of the same cell line?
The relative viability was 0.98.

What about the relative viability ([21]; first compound 2.53 µM) of the same cell line?
Its relative viability is 0.93.

And the relative viability ([21]; first compound 8 µM)?
Its relative viability is 0.982.

And the relative viability ([10]; first compound 0.253 µM)?
Its relative viability is 0.922.

And the relative viability ([10]; first compound 0.8 µM)?
Its relative viability is 0.956.

What about the relative viability ([10]; first compound 2.53 µM) of the same cell line?
Its relative viability is 0.918.

What about the relative viability ([10]; first compound 8 µM) of the same cell line?
The relative viability was 0.942.

What about the relative viability ([13]; 0.253 µM) of the same cell line?
The relative viability was 1.02.

What about the relative viability ([13]; 0.8 µM) of the same cell line?
Its relative viability is 1.02.

And the relative viability ([13]; 2.53 µM)?
The relative viability was 0.986.

And the relative viability ([13]; 8 µM)?
The relative viability was 0.976.
